Reference: article PMC11093668 (Clinical Infectious Diseases: An Official Publication of …, 2023)
Where two headings read alike, the source gives them in different places.

Assays:
[1] = human, in vivo
[2] = atazanavir co-administration; cited from earlier work
HIV [3] = test system: HIV; design: method as in ref 25 = [25]; 25 Fda, Cder . Reyataz (atazanavir sulfate) capsules label. Available at: www.fda.gov/medwatch . Accessed 17 September 2019.; settings: primary target minimum concentration; cited from earlier work
clinical = settings: human, in vivo, geometric mean (90% CI)
HIV [4] = test system: HIV; design: method as in ref 26 = [26]; 26 Gonzalez de Requena D , Bonora S , Canta F , et al Atazanavir trough is associated with efficacy and safety: definition of therapeutic range. In: 6th Intenational Workshop on Clinical Pharmacology; settings: secondary target; cited from earlier work

## CC(C)c1nc(CN(C)C(=O)N[C@H](C(=O)N[C@@H](Cc2ccccc2)C[C@H](O)[C@H](Cc2ccccc2)NC(=O)OCc2cncs2)C(C)C)cs1 [Ritonavir, ritonavir]
[1]
  AUC24, geometric mean (90% CI): 9.5 (8.4 - 11) mg·h/L
  Clearance/F, geometric mean (90% CI): 11 (9.34 - 11.9 L/h
  T1/2, geometric mean (90% CI): 5.7 (5.4- 6.1) h
[1]; 24 h
  Ctau, geometric mean (90% CI): 0.068 (0.060- 0.077) mg/L

## CO[C@H]1/C=C/O[C@@]2(C)Oc3c(C)c(O)c4c(O)c(c(/C=N/N5CCN(C)CC5)c(O)c4c3C2=O)NC(=O)/C(C)=C\C=C\[C@H](C)[C@H](O)[C@@H](C)[C@@H](O)[C@@H](C)[C@H](OC(C)=O)[C@@H]1C [Rifampicin, rifampicin]
[1]; 24 h
  Ctau higher with dose escalated ATV/r: 40%

## C[C@@H]1CCO[C@H]2Cn3cc(C(=O)NCc4ccc(F)cc4F)c(=O)c(O)c3C(=O)N12 [Dolutegravir, dolutegravir]
[1]
  AUC24 (exposure) higher with dose escalation of ATV/r: 1.6 fold
[1]; 12 h
  Ctau higher with dose escalation of ATV/r: 2 folds
[2]
  increase in dolutegravir exposure: 91%

## COC(=O)N[C@H](C(=O)N[C@@H](Cc1ccccc1)[C@@H](O)CN(Cc1ccc(-c2ccccn2)cc1)NC(=O)[C@@H](NC(=O)OC)C(C)(C)C)C(C)(C)C [Atazanavir, atazanavir]
HIV [3]
  protein-adjusted IC90 (PA-IC90): 0.014 mg/L
[1]
  AUC24, geometric mean (90% CI): 40 (35–46) mg·h/L
  Clearance/F, geometric mean (90% CI): 7.5 (6.6–8.7) L/h
  T1/2, geometric mean (90% CI): 11 (10–12) h
[1]; 12 h
  Ctau, geometric mean ratio (90% CI): 0.98 (0.81–1.2)
[1]; 24 h
  Ctau, geometric mean (90% CI): 0.59 (0.48–0.74) mg/L
  Ctau, geometric mean ratio (90% CI): 0.039 (0.032– 0.048)
  lowest Ctau, fold higher than PA-IC90: 12.7 fold
  proportion of Ctau below the limit of quantification (0.03 mg/L): 65%
clinical
  Cmax: 4600 ng/mL
HIV [4]
  minimum effective concentration (MEC): 0.15 mg/L
